Laboratory results as given in PubChem BioAssay AID1259375 (The Scripps Research Institute Molecular Screening Center, 2018).
Active and inactive are the calls of the source. The rule behind the calls is not given here.

target: Microphthalmia-associated transcription factor (Homo sapiens) (UniProt O75030); assay: MITF inhibitors by FRET titration, dose response, biochemical, high throughput (AID 1259375); details: FRET biochemical assay, MITF inhibition;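 note: FRET between CFP-tagged and YFP-tagged MITF protein partners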
Sequence (O75030 whole entry, looked up): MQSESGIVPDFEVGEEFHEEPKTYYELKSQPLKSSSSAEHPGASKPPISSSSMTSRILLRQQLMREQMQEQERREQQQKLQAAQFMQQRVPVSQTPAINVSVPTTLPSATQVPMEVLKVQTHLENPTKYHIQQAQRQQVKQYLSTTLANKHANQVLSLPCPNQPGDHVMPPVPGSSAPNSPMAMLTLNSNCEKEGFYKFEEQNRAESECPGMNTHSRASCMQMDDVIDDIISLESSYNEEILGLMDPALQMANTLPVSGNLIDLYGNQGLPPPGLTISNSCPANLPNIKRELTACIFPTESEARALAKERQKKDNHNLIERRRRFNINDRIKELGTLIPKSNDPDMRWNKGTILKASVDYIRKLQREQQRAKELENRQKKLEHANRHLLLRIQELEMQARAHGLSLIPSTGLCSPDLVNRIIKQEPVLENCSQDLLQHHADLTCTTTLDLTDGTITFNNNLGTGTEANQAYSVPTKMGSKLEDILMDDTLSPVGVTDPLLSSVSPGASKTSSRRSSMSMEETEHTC

IC50	SMILES
> 6.48 µM (inactive)	Cc1n[nH]c(=O)nc1NNc1ccc(C(=O)O)cc1
> 6.48 µM (inactive)	CCN1CCc2c(sc(NC(=S)NC(=O)/C=C/c3ccco3)c2C(N)=O)C1
> 6.48 µM (inactive)	CCCCCCCCCCCCCCCC(=O)OC[C@H](O)[C@H]1OC(=O)C(=O)C1O (stereo partly drawn)
> 5.71 µM (inactive)	COc1ccc2c(c1)C1NC(=S)N(c3cccc(C)c3)C(C)(O2)C1C(=O)Nc1ccc(C)cc1C (stereo not drawn)
3.33 µM	O=C(/C=C/c1ccco1)NC(=S)Nc1cc(C(=O)O)ccc1Cl
> 6.48 µM (inactive)	N#C/C(=C\c1ccc(-c2ccccc2C(=O)O)o1)C(=O)NCc1ccco1
> 6.42 µM (inactive)	COC(=O)c1c(NC(=O)c2ccc([N+](=O)[O-])o2)sc(Cc2ccc3c(c2)OCO3)c1C
> 6.48 µM (inactive)	CCN(CC)c1ncnc2c1ncn2[C@@H]1O[C@H](COP(=O)(O)OP(=O)(O)C(Br)(Br)P(=O)(O)O)C(O)[C@@H]1O (stereo partly drawn)
> 6.75 µM (inactive)	NC(=O)n1c(CCC(=O)O)nc2sc3c(c2c1=O)CCC3
> 6.77 µM (inactive)	O=C(COc1ccccc1C(=O)OC1CCCC1=O)Nc1cccc(C(F)(F)F)c1 (stereo not drawn)
> 6.48 µM (inactive)	O=C(O)c1cc(-n2cccc2)ccc1Cl
> 6.48 µM (inactive)	O=C1N[C@H](Cc2ccccc2)C(=O)N2CCN(C(=O)NCc3ccccc3)C[C@H]12
> 6.48 µM (inactive)	CC(C)(C)OC(=O)N1C(C(=O)O)CSC1c1cc2c(cc1[N+](=O)[O-])OCO2 (stereo not drawn)
> 6.48 µM (inactive)	CC[C@@H]1NC(=O)[C@H]2CN(C(=O)NC3CCCCC3)CCN2C1=O
> 5.58 µM (inactive)	N[C@@H](C(=O)N[C@@H]1C(=O)N2C(C(=O)O)=C(CSC3CNNN3)CS[C@H]12)c1ccc(O)cc1 (stereo partly drawn) (tested in a mixture with another compound)
> 6.48 µM (inactive)	C[C@H]1NC(=O)[C@H]2CN(C(=O)NCc3ccccc3)CCN2C1=O
> 6.48 µM (inactive)	O=C(O)CCCNC(=O)/C=C/c1ccco1
> 6.5 µM (inactive)	NC(=O)c1cncc(-c2cccs2)c1
> 6.95 µM (inactive)	Cc1ccc(NC(=O)COC(=O)CCC(=O)Nc2sc3c(c2C(N)=O)CCC3)cc1F
3.08 µM	CN(C)c1ccc(O)c2c1C[C@H]1C[C@H]3[C@H](N(C)C)C(=O)C(C(N)=O)=C(O)[C@@]3(O)C(=O)C1=C2O
> 6.48 µM (inactive)	C[C@@H]1NC(=O)[C@H]2CN(C(=O)NCc3ccccc3)CCN2C1=O
> 7.72 µM (inactive)	C=C1C(C(=O)NCc2ccco2)C1C(=O)NCc1ccco1 (stereo not drawn)
> 6.48 µM (inactive)	CN(C)[C@@H]1C(=O)C(C(=O)NCN2CCCC2)=C(O)[C@@]2(O)C(=O)C3=C(O)c4c(O)cccc4[C@@](C)(O)C3CC12 (stereo partly drawn)

IC50	SMILES
> 6.48 µM (inactive)	CCN(CC)CC(=O)Nc1ccc(OC)cc1
> 6.48 µM (inactive)	CCCCNCCOc1ccccc1OCC
> 6.48 µM (inactive)	CCOC(=O)N1CCN(C(=S)Nc2ccc(OCC)cc2)CC1
> 6.48 µM (inactive)	O=C(/C=C/c1ccco1)C1=C(O)C(=O)N(CCCN2CCOCC2)C1c1ccco1 (stereo not drawn)
> 6.64 µM (inactive)	Cc1ccc([N+](=O)[O-])cc1S(=O)(=O)Nc1ccc(Nc2ncccc2[N+](=O)[O-])cc1
> 6.48 µM (inactive)	O=S(=O)(O)c1ccc(N/N=C2\CCc3ccccc32)cc1
4.37 µM	NC(=O)c1ccc(N=Cc2cc3c(cc2[N+](=O)[O-])OCO3)cc1
> 6.18 µM (inactive)	NC(=O)c1ccc2nc(-c3cccs3)sc2c1
> 6.48 µM (inactive)	C=CC1=C(C)C2=Cc3c(C=C)c(C)c4[n]3[Sn+2][n]3c(c(C)c(CCC(=O)O)c3=CC3=NC(=C4)C(C)=C3CCC(=O)O)=CC1=N2
> 6.48 µM (inactive)	O=C1N[C@@H](Cc2c[nH]c3ccccc23)C(=O)N2CCN(C(=O)NC3CCCCC3)C[C@H]12
> 6.48 µM (inactive)	COCCCNC(=O)/C(C#N)=C/c1ccc(-c2ccc(Cl)c(C(=O)O)c2)o1
> 6.48 µM (inactive)	CC1=C(C#N)C(c2cc3c(cc2[N+](=O)[O-])OCO3)C2=C(CCCC2=O)N1 (stereo not drawn)
> 6.48 µM (inactive)	O=C(Nc1cc(S(=O)(=O)O)cc2cc(S(=O)(=O)O)cc(O)c12)c1ccccc1
> 6.48 µM (inactive)	O=C(NCc1ccccc1)N1CCN2C(=O)[C@@H]3CCCN3C(=O)[C@H]2C1
> 6.48 µM (inactive)	COc1cccc(COC(=O)Nc2ccc(-c3cn[nH]c3)cc2N(C)CCN(C)C)c1
> 6.48 µM (inactive)	COc1ccc2c(c1)CC(C(=O)Nc1ccc(-c3cn[nH]c3)cc1C(=O)N(C)OC)CO2 (stereo not drawn)
> 6.48 µM (inactive)	C[C@H]1NC(=O)[C@H]2CN(C(=O)NC3CCCCC3)CCN2C1=O
> 6.48 µM (inactive)	Cc1cc(C(=O)O)ccc1-c1ccc(/C=C2/NC(=O)NC2=O)o1
> 6.48 µM (inactive)	CC(C)[C@@H]1NC(=O)[C@H]2CN(C(=O)NC3CCCCC3)CCN2C1=O
> 5.15 µM (inactive)	Cc1ccc(N2C(=O)c3ccccc3NC2c2cccc([N+](=O)[O-])c2)cc1 (stereo not drawn)
> 6.64 µM (inactive)	O=C(NCc1cccnc1)c1cccc(-c2cccs2)c1
> 6.48 µM (inactive)	Cc1cc(CSC(=N)N)c(O)c(C)n1
> 6.48 µM (inactive)	C[C@H](O)[C@H]1NC(=O)[C@H]2CN(C(=O)NCc3ccccc3)CCN2C1=O

IC50	SMILES
> 6.48 µM (inactive)	O=C1N[C@H](CO)C(=O)N2CCN(C(=O)NCc3ccccc3)C[C@H]12
> 6.48 µM (inactive)	O=C(/C=C/c1ccco1)NCC(=O)N/N=C/c1ccc(C(=O)O)cc1
> 6.48 µM (inactive)	CC1=C/C(=N\N=C2\NC(=O)C(CC(=O)Nc3ccc(C(=O)O)cc3)S2)CC(C)(C)C1 (stereo not drawn)
> 6.48 µM (inactive)	O=C(Cn1ncn2cccc2c1=O)N1CCc2ccccc2C1
> 6.48 µM (inactive)	C=C1c2cccc(O)c2C(O)=C2C(=O)[C@]3(O)C(O)=C(C(N)=O)C(=O)[C@@H](N(C)C)[C@@H]3[C@@H](O)[C@H]12
> 6.48 µM (inactive)	C[C@@H](O)[C@@H]1NC(=O)[C@H]2CN(C(=O)NCc3ccccc3)CCN2C1=O
> 6.91 µM (inactive)	NC(=O)COC(=O)c1cc2c(s1)CCC2
> 6.48 µM (inactive)	Cc1cc(C)n(C(=O)/C=C/c2ccco2)n1
inactive	COc1ccc2nc(-c3ccco3)c(-c3ccco3)nc2c1
> 6.48 µM (inactive)	CCOC(=O)C1CCCN(Cc2cccc(Br)c2)C1 (stereo not drawn)
> 6.48 µM (inactive)	Cc1cccc(N2CCN(C(=O)/C=C\C(=O)O)CC2)c1C
> 6.48 µM (inactive)	COc1ccc2c(c1)CC(c1nc(Nc3ccc4cnccc4c3)c3ccccc3n1)CO2 (stereo not drawn)
> 6.48 µM (inactive)	CC[C@H](C)[C@@H]1NC(=O)[C@H]2CN(C(=O)NC3CCCCC3)CCN2C1=O
> 6.48 µM (inactive)	O=c1cc(/C=C/c2ccc(O)cc2)nc2nn[nH]n12
3.84 µM	O=C(OC1(C(F)(F)F)C(=O)Nc2cc3c(cc21)OCO3)c1ccc(Cl)nc1 (stereo not drawn)
> 6.56 µM (inactive)	CC(Oc1ccc2c(C(F)(F)F)cc(=O)oc2c1)C(=O)NN (stereo not drawn)
> 6.69 µM (inactive)	O=C(OC1CCCC1=O)c1ccc(Cl)c(S(=O)(=O)N2CCOCC2)c1 (stereo not drawn)
inactive	O=c1[nH]c(/C=C/c2ccco2)nc(O)c1[N+](=O)[O-]
inactive	CCCCOc1ccc(C(=O)N/C(=C/c2ccco2)C(=O)O)cc1
> 6.48 µM (inactive)	COc1cc(N2CCOCC2)ccc1Nc1cc(NC(C)(C)c2ccccc2)c(C(F)(F)F)cn1
> 6.48 µM (inactive)	COc1nccnc1NS(=O)(=O)c1ccc(NC(=O)c2ccc([N+](=O)[O-])c(C)c2)cc1
> 5.66 µM (inactive)	O=C(c1cccc(F)c1)N1CCN(Cc2ccncc2)CC1
> 7.18 µM (inactive)	O=C(O)c1cc(NN=C2CCCC2)ccc1Cl

IC50	SMILES
> 5.08 µM (inactive)	Cc1cccc(CN2CCN(S(=O)(=O)c3ccccc3[N+](=O)[O-])CC2)c1
> 7.32 µM (inactive)	O=C(O)c1ccc(CNC(=O)c2cocc2C(=O)O)o1
> 6.48 µM (inactive)	c1ccc(COc2ccc(OCCCCn3ccnc3)cc2)cc1
> 6.48 µM (inactive)	O=[N+]([O-])c1ccc(N/N=C/c2ccco2)c(S(=O)(=O)N2CCOCC2)c1
> 5.9 µM (inactive)	Nc1ccc(NCCO)c(N)c1
> 6.48 µM (inactive)	CCC[C@@H]1NC(=O)[C@H]2CN(C(=O)NC3CCCCC3)CCN2C1=O
> 6.48 µM (inactive)	O=C1NC(=O)/C(=C\c2ccc(O)cc2O)S1
> 6.48 µM (inactive)	O=C(CCCCC1SCC2NC(=O)NC21)NC1(c2ccc3c(c2)OCO3)CCCC1 (stereo not drawn)
> 6.48 µM (inactive)	c1ccc2c(c1)OCC(c1nc3c(-c4ccncc4)cncc3[nH]1)O2 (stereo not drawn)
> 6.48 µM (inactive)	CCOC(=O)Cc1[nH]nc2c1C1(C(=O)N(CC)c3ccccc31)C(C#N)=C(N)O2 (stereo not drawn)
> 6.48 µM (inactive)	CC(C)C[C@H]1C(=O)N2CCN(C(=O)NC3CCCCC3)C[C@@H]2C(=O)N1C
> 6.48 µM (inactive)	Cc1cc2ncn(Cc3noc(-c4ccco4)n3)c2cc1C
> 6.48 µM (inactive)	CN(C)CCS(=O)c1cc(-c2cn[nH]c2)ccc1NC(=O)[C@H]1Cc2cc(F)ccc2CN1 (stereo partly drawn)
> 6.48 µM (inactive)	CN(C)CCS(=O)c1cc(-c2cn[nH]c2)ccc1NC(=O)[C@@H]1Cc2cc(F)ccc2CN1 (stereo partly drawn)
> 10.2 µM (inactive)	CSc1ccc(C(=O)O)s1
> 6.48 µM (inactive)	N#C/C(=C/c1ccco1)c1cccc(F)c1
> 6.48 µM (inactive)	CNC(=O)COc1cc(-c2cn[nH]c2)ccc1NC(=O)C1COc2ccc(OC)cc2C1 (stereo not drawn)
> 6.48 µM (inactive)	NC(=O)Cn1cnc2sc3c(c2c1=O)CCC3
> 6.48 µM (inactive)	NS(=O)(=O)c1ccc(N=Cc2cc3c(cc2[N+](=O)[O-])OCO3)cc1
> 6.48 µM (inactive)	COc1cc(-c2ccnc(N)n2)ccc1NC(=O)[C@H]1COc2ccccc2O1
> 6.48 µM (inactive)	C[C@@H]1NC(=O)[C@H]2CN(C(=O)NC3CCCCC3)CCN2C1=O
> 6.55 µM (inactive)	O=C(NCC(c1cccs1)S(=O)(=O)c1ccc(Cl)cc1)c1ccco1 (stereo not drawn)

SMILES	IC50
COc1ccc(CC2NCCc3cc(OC)c(OC)cc32)cc1OC (stereo not drawn)	0.925 µM
O=C(O)CSc1cc(Cl)c2nonc2c1[N+](=O)[O-]	4.2 µM
